biological target: human PKR1 receptors (Homo sapiens (Human), UniProt Q8TCW9); test: PKR1 antagonist assay: block of PK1-mediated intracellular calcium release (FLIPR Tetra); type: cell-based; settings: RBL2H3 cells expressing human PKR1; stimulation with PK1 at EC80; calcium fluorescence
Summary of the method: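 RBL2H3 cells expressing human PKR1, loaded 1 h at 37 °C with Calcium 5 dye plus 1 mM probenecid in HBSS/25 mM HEPES/0.1% BSA, pH 7.4. Compounds (0.32 nM–10 µM final) preincubated 10 min, then PK1 added at EC80; fluorescence read at 525 nm (excitation 485 nm).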

Chain of human PKR1 receptors (Q8TCW9 whole entry): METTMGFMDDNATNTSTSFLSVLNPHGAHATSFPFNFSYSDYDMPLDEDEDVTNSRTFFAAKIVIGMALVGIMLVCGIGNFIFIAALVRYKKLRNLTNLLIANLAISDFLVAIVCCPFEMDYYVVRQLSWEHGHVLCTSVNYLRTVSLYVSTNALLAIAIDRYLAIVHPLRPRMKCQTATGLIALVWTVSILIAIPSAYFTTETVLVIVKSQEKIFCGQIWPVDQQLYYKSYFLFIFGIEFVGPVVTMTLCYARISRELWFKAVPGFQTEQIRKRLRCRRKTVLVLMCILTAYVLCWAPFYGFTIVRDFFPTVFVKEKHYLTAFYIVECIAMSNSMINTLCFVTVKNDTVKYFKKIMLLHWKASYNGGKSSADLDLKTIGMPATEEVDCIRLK

SMILES | IC50
CCn1cc(C(=O)N2CCCC(c3ccc(Cl)cc3)C2)cn1 (stereo not shown) [Example 90, 3-(4-Chlorophenyl)-1-[(1-ethyl-1H-pyrazol-4-yl)carbonyl]piperidine] | 660 nM
CC(C)n1cc(C(=O)N2CCCC(c3ccc(Cl)cc3)C2)cn1 (stereo not shown) [Example 91, 3-(4-Chlorophenyl)-1-{[1-(propan-2-yl)-1H-pyrazol-4-yl]carbonyl}piperidine] | 960 nM
CCn1cc(C(=O)N2CCCC(c3ccc(Cl)cc3C)C2)cn1 (stereo not shown) [Example 92, 3-(4-Chloro-2-methylphenyl)-1-[(1-ethyl-1H-pyrazol-4-yl)carbonyl]piperidine] | 110 nM
Cc1cc(Cl)ccc1C1CCCN(C(=O)c2cnn(C(C)C)c2)C1 (stereo not shown) [Example 93, 3-(4-Chloro-2-methylphenyl)-1-{[1-(propan-2-yl)-1H-pyrazol-4-yl]carbonyl}piperidine] | 180 nM
Cc1cc(Cl)ccc1C1CCCN(C(=O)c2cnn(C)c2)C1 (stereo not shown) [Example 94, 3-(4-Chloro-2-methylphenyl)-1-[(1-methyl-1H-pyrazol-4-yl)carbonyl]piperidine] | 170 nM
Cc1cc(Cl)ccc1C1CCCN(C(=O)c2cnn(C)c2N)C1 (stereo not shown) [Example 95, 4-{[3-(4-Chloro-2-methylphenyl)piperidin-1-yl]carbonyl}-1-methyl-1H-pyrazol-5-amine] | 150 nM
O=C(c1cn[nH]c1)N1CCCC(c2ccc(Cl)cc2C(F)(F)F)C1 (stereo not shown) [Example 96, 3-[4-Chloro-2-(trifluoromethyl)phenyl]-1-[(1H-pyrazol-4-yl)carbonyl]piperidine] | 2440 nM
Cn1cc(C(=O)N2CCCC(c3ccc(Cl)cc3C(F)(F)F)C2)cn1 (stereo not shown) [Example 97, 3-[4-Chloro-2-(trifluoromethyl)phenyl]-1-[(1-methyl-1H-pyrazol-4-yl)carbonyl]piperidine] | 100 nM
CCn1cc(C(=O)N2CCCC(c3ccc(Cl)cc3C(F)(F)F)C2)cn1 (stereo not shown) [Example 98, 3-[4-Chloro-2-(trifluoromethyl)phenyl]-1-[(1-ethyl-1H-pyrazol-4-yl)carbonyl]piperidine] | 170 nM
CC(C)n1cc(C(=O)N2CCCC(c3ccc(Cl)cc3C(F)(F)F)C2)cn1 (stereo not shown) [Example 99, 3-[4-Chloro-2-(trifluoromethyl)phenyl]-1-{[1-(propan-2-yl)-1H-pyrazol-4-yl]carbonyl}piperidine] | 330 nM
Cn1cc(C(=O)N2CCCC(c3ccc(Cl)cc3C(F)(F)F)C2)c(N)n1 (stereo not shown) [Example 100, 4-({3-[4-Chloro-2-(trifluoromethyl)phenyl]piperidin-1-yl}carbonyl)-1-methyl-1H-pyrazol-3-amine] | 540 nM
COc1ccc(C2CCCN(C(=O)c3cn(C)nc3C)C2)c(C)c1 (stereo not shown) [Example 101, 1-[(1,3-Dimethyl-1H-pyrazol-4-yl)carbonyl]-3-(4-methoxy-2-methylphenyl)piperidine] | 1030 nM
COc1ccc(C2CCCN(C(=O)c3cn(C)nc3N)C2)c(C)c1 (stereo not shown) [Example 102, 4-{[3-(4-Methoxy-2-methylphenyl)piperidin-1-yl]carbonyl}-1-methyl-1H-pyrazol-3-amine] | 1540 nM
Cc1nn(C)cc1C(=O)N1CCCC(c2ccc(Cl)cc2C(F)(F)F)C1 (stereo not shown) [Example 103, 3-[4-Chloro-2-(trifluoromethyl)phenyl]-1-[(1,3-dimethyl-1H-pyrazol-4-yl)carbonyl]piperidine] | 490 nM
CN(C)c1cc(C(=O)N2C=C(c3ccc(Cl)cc3)CCC2)ccn1 [Example 104, 4-{[5-(4-Chlorophenyl)-1,2,3,4-tetrahydropyridin-1-yl]carbonyl}-N,N-dimethylpyridin-2-amine] | 420 nM
Cc1cc(Cl)ccc1C1=CN(C(=O)c2ccnc(N(C)C)c2)CCC1 [Example 105, 4-{[5-(4-Chloro-2-methylphenyl)-1,2,3,4-tetrahydropyridin-1-yl]carbonyl}-N,N-dimethylpyridin-2-amine] | 270 nM
CN(C)c1cc(C(=O)N2C=C(c3ccc(Cl)cc3Cl)CCC2)ccn1 [Example 106, 4-{[5-(2,4-Dichlorophenyl)-1,2,3,4-tetrahydropyridin-1-yl]carbonyl}-N,N-dimethylpyridin-2-amine] | 1230 nM
CN(C)c1cc(C(=O)N2CCCCC(c3ccccc3)C2)ccn1 (stereo not shown) [Example 107, N,N-Dimethyl-4-[(3-phenylazepan-1-yl)carbonyl]pyridin-2-amine] | 2970 nM
CN(C)c1cc(C(=O)N2CCCCC(c3ccc(Cl)cc3)C2)ccn1 (stereo not shown) [Example 108, 4-{[3-(4-Chlorophenyl)azepan-1-yl]carbonyl}-N,N-dimethylpyridin-2-amine] | 3230 nM
COc1ccc(C2CCCCN(C(=O)c3ccnc(N(C)C)c3)C2)cc1 (stereo not shown) [Example 109, 4-{[3-(4-Methoxyphenyl)azepan-1-yl]carbonyl}-N,N-dimethylpyridin-2-amine] | 960 nM
CNc1cc(C(=O)N2CCCCC(c3ccc(OC)cc3)C2)ccn1 (stereo not shown) [Example 110, 4-{[3-(4-Methoxyphenyl)azepan-1-yl]carbonyl}-N-methylpyridin-2-amine] | 450 nM
CNc1cc(C(=O)N2CCCCC(c3ccc(Cl)cc3)C2)ccn1 (stereo not shown) [Example 111, 4-{[3-(4-Chlorophenyl)azepan-1-yl]carbonyl}-N-methylpyridin-2-amine] | 430 nM
CNc1cc(C(=O)N2CCCCC(c3ccc(OC)cc3)C2)cnn1 (stereo not shown) [Example 112, 5-{[3-(4-Methoxyphenyl)azepan-1-yl]carbonyl}-N-methylpyridazin-3-amine] | 1270 nM
CNc1cc(C(=O)N2CCCCC(c3ccc(Cl)cc3)C2)cnn1 (stereo not shown) [Example 113, 5-{[3-(4-Chlorophenyl)azepan-1-yl]carbonyl}-N-methylpyridazin-3-amine] | 930 nM
COc1ccc(C2CCCCN(C(=O)c3cnnc(N(C)C)c3)C2)cc1 (stereo not shown) [Example 114, 5-{[3-(4-Methoxyphenyl)azepan-1-yl]carbonyl}-N,N-dimethylpyridazin-3-amine] | 1430 nM
CN(C)c1cc(C(=O)N2CCCCC(c3ccc(Cl)cc3)C2)cnn1 (stereo not shown) [Example 115, 5-{[3-(4-Chlorophenyl)azepan-1-yl]carbonyl}-N,N-dimethylpyridazin-3-amine] | 1440 nM
Cc1cc(Cl)ccc1C1(O)CCCN(C(=O)c2ccnc(N(C)C)c2)C1 (stereo not shown) [Example 116, 3-(4-Chloro-2-methylphenyl)-1-{[2-(dimethylamino)pyridin-4-yl]carbonyl}piperidin-3-ol] | 1360 nM
CN(C)c1cc(C(=O)N2CCCC(O)(c3ccc(F)cc3)C2)ccn1 (stereo not shown) [Example 117, 1-{[2-(Dimethylamino)pyridin-4-yl]carbonyl}-3-(4-fluorophenyl)piperidin-3-ol] | 3940 nM

Source: patent US9790201B2, “Piperidine and azepine derivatives as prokineticin receptor modulators” (TAKEDA PHARMACEUTICAL COMPANY LIMITED, priority 2013, dated 2017)
